# Results from patent US20260257998A1, “ERR MODULATORS” (University of Health Sciences and Pharmacy in St. Louis, priority 2023, published 2026).
# What was measured:
# ERRγ = biological target: T1, ERRγ (Homo sapiens, UniProt P62508); assay: ERRE luciferase reporter assay in HEK293 cells transfected with pcDNA3.1 ERRγ; assay type: cell-based; parameters: key to EC50 (ERRγ): ***<1 μM; **1-5 μM; *>5 μM; i.a. (inactive); settings: 24 hours treatment, luciferase activity
# T1 construct: expressed in transfected cells; host or cells: HEK293
# T1 sequence (P62508 1-458): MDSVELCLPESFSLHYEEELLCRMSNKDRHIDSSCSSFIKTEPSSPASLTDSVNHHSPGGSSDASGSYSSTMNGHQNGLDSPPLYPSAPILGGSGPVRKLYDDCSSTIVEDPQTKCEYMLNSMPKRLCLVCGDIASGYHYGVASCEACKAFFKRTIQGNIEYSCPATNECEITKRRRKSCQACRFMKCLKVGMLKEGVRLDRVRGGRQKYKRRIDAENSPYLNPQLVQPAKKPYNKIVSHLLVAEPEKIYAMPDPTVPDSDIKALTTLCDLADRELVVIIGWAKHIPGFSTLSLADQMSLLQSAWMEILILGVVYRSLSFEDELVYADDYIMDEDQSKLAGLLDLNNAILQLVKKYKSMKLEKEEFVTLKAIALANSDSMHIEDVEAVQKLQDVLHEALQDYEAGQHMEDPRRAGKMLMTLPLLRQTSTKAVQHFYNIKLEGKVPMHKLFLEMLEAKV
# Procedure: (§1) HEK293 cells were maintained in Dulbecco's modified Eagles medium (DMEM) supplemented with 10% fetal bovine serum at 37° C. under 5% CO2. […] Cells were transfected with ERRE reporter construct and pcDNA3.1 ERRα or ERRγ. Twenty-four-hours post-transfection, the cells were treated with vehicle or compound (various concentrations) for 24 hours (4 wells per dose). Luciferase activity was measured using the One-Glo Tox luciferase reporter assay system (Promega) and […] were calculated using GraphPad Prism software.
# ERRα = biological target: T2, ERRα (Homo sapiens, UniProt P11474); assay: ERRE luciferase reporter assay in HEK293 cells transfected with pcDNA3.1 ERRα; assay type: cell-based; parameters: key to EC50 (ERRα): ***<1 μM; **1-5 μM; *>5 μM; i.a. (inactive); settings: 24 hours treatment, luciferase activity
# T2 construct: expressed in transfected cells; host or cells: HEK293
# T2 sequence (P11474 1-423): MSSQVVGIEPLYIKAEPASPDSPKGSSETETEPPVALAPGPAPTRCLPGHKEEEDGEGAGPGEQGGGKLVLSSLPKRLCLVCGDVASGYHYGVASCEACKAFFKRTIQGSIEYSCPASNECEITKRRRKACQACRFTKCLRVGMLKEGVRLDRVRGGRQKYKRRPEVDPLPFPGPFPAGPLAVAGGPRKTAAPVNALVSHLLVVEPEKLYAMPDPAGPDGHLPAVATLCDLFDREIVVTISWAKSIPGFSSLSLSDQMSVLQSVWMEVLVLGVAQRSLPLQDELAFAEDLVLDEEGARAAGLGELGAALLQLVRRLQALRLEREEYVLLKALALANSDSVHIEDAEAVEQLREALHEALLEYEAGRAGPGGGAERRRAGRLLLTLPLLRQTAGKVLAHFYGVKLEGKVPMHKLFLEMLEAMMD
# Procedure: as §1
SMILES,EC50 (ERRγ) (ERRγ),EC50 (ERRα) (ERRα),EC50 (ERRγ) [µM],EC50 (ERRα) [µM]
"Oc1ccccc1C1CC(c2ccc(Cl)cc2Cl)=NN1 (centres unmarked) [Entry 48, 2-(3-(2,4-Dichlorophenyl)-4,5-dihydro-1H-pyrazol-5-yl)phenol]",i.a.,i.a.,–,–
"Cc1ccc(O)c(C2CC(c3ccc(Cl)cc3Cl)=NN2)c1 (centres unmarked) [Entry 49, 2-(3-(2,4-Dichlorophenyl)-4,5-dihydro-1H-pyrazol-5-yl)-4-methylphenol]",i.a.,i.a.,–,–
"COc1ccccc1C1=NNC(c2ccccc2O)C1 (centres unmarked) [Entry 53, 2-(3-(2-Methoxyphenyl)-4,5-dihydro-1H-pyrazol-5-yl)phenol]",–,–,1 to 5,1 to 5
"Oc1ccccc1C1CC(c2ccccc2F)=NN1 (centres unmarked) [Entry 54, 2-(3-(2-Fluorophenyl)-4,5-dihydro-1H-pyrazol-5-yl)phenol]",–,–,> 5,1 to 5
"COc1ccc(C2=NNC(c3cccc(Cl)c3O)C2)cc1 (centres unmarked) [Entry 58, 2-chloro-6-(3-(4-methoxyphenyl)-4,5-dihydro-1H-pyrazol-5-yl)phenol]",–,–,1 to 5,1 to 5
"COc1ccccc1C1=NNC(c2cccc(Cl)c2O)C1 (centres unmarked) [Entry 60, 2-chloro-6-(3-(2-methoxyphenyl)-4,5-dihydro-1H-pyrazol-5-yl)phenol]",i.a.,i.a.,–,–
"COc1cccc(C2=NNC(c3ccccc3O)C2)c1 (centres unmarked) [Entry 62, 2-(3-(3-methoxyphenyl)-4,5-dihydro-1H-pyrazol-5-yl)phenol]",i.a.,–,–,1 to 5
"Oc1ccc(C2CC(c3ccccc3O)=NN2)cc1 (centres unmarked) [Entry 67, 2-(5-(4-hydroxyphenyl)-4,5-dihydro-1H-pyrazol-3-yl)phenol]",–,i.a.,> 5,–
"Oc1ccccc1C1=NNC(c2c(O)cccc2Cl)C1 (centres unmarked) [Entry 69, 3-chloro-2-(3-(2-hydroxyphenyl)-4,5-dihydro-1H-pyrazol-5-yl)phenol]",i.a.,i.a.,–,–
"Cc1cc(C2CC(c3ccc(C(F)(F)F)cc3)=NN2)cc(C)c1O (centres unmarked) [Entry 70, 2,6-dimethyl-4-(3-(4-(trifluoromethyl)phenyl)-4,5-dihydro-1H-pyrazol-5-yl)phenol]",i.a.,i.a.,–,–
"Oc1ccc(C2CC(c3ccc(C(F)(F)F)cc3)=NN2)cc1Cl (centres unmarked) [Entry 71, 2-chloro-4-(3-(4-(trifluoromethyl)phenyl)-4,5-dihydro-1H-pyrazol-5-yl)phenol]",i.a.,i.a.,–,–
"Oc1ccc(C2CC(c3ccc(C(F)(F)F)cc3)=NN2)cc1 (centres unmarked) [Entry 73, 4-(3-(4-(trifluoromethyl)phenyl)-4,5-dihydro-1H-pyrazol-5-yl)phenol]",–,–,1 to 5,1 to 5
"Oc1cccc(C2CC(c3ccc(C(F)(F)F)cc3)=NN2)c1 (centres unmarked) [Entry 74, 3-(3-(4-(trifluoromethyl)phenyl)-4,5-dihydro-1H-pyrazol-5-yl)phenol]",–,–,1 to 5,1 to 5
"FC(F)(F)c1ccc(C2=NNC(c3ccccc3)C2)cc1 (centres unmarked) [Entry 75, 5-phenyl-3-(4-(trifluoromethyl)phenyl)-4,5-dihydro-1H-pyrazole]",–,–,1 to 5,1 to 5
"Oc1cccc(C2CC(c3cccc(F)c3)=NN2)c1 (centres unmarked) [Entry 78, 3-(3-(3-fluorophenyl)-4,5-dihydro-1H-pyrazol-5-yl)phenol]",i.a.,–,–,1 to 5
"Oc1ccc(C2CC(c3ccc(Br)cc3)=NN2)cc1 (centres unmarked) [Entry 80, 4-(3-(4-bromophenyl)-4,5-dihydro-1H-pyrazol-5-yl)phenol]",–,–,1 to 5,< 1
"Oc1ccc(C2CC(c3ccc(F)cc3)=NN2)cc1 (centres unmarked) [Entry 85, 4-(3-(4-fluorophenyl)-4,5-dihydro-1H-pyrazol-5-yl)phenol]",–,–,> 5,> 5

# Next, values leading:
EC50 (ERRγ) (ERRγ),EC50 (ERRα) (ERRα),EC50 (ERRγ) [µM],EC50 (ERRα) [µM],SMILES
i.a.,i.a.,–,–,"Oc1c(Br)cc(Br)cc1C1CC(c2cc(Br)cc(Br)c2)=NN1 (centres unmarked) [Entry 43, 2,4-Dibromo-6-(3-(3,5-dibromophenyl)-4,5-dihydro-1H-pyrazol-5-yl)phenol]"
–,–,1 to 5,1 to 5,"Oc1c(Cl)cccc1C1CC(c2ccc(Br)cc2)=NN1 (centres unmarked) [Entry 45, 2-(3-(4-Bromophenyl)-4,5-dihydro-1H-pyrazol-5-yl)-6-chlorophenol]"
–,–,> 5,1 to 5,"Oc1ccccc1C1CC(c2ccc(F)cc2)=NN1 (centres unmarked) [Entry 46, 2-(3-(4-Fluorophenyl)-4,5-dihydro-1H-pyrazol-5-yl)phenol]"
–,–,1 to 5,> 5,"Oc1ccccc1C1CC(c2ccc(Cl)cc2)=NN1 (centres unmarked) [Entry 47, 2-(3-(4-Chlorophenyl)-4,5-dihydro-1H-pyrazol-5-yl)phenol]"
–,–,1 to 5,< 1,"Oc1ccccc1C1=NNC(c2ccccc2)C1 (centres unmarked) [Entry 50, 2-(5-Phenyl-4,5-dihydro-1H-pyrazol-3-yl)phenol]"
–,–,< 1,< 1,"COc1ccc(C2=NNC(c3ccccc3)C2)c(O)c1 (centres unmarked) [Entry 52, 5-Methoxy-2-(5-phenyl-4,5-dihydro-1H-pyrazol-3-yl)phenol]"
–,–,> 5,> 5,"COc1ccc(C2=NNC(c3ccc(C)cc3O)C2)cc1 (centres unmarked) [Entry 59, 2-(3-(4-methoxyphenyl)-4,5-dihydro-1H-pyrazol-5-yl)-5-methylphenol]"
–,i.a.,> 5,–,"Cc1ccc(C2CC(c3ccc(Br)cc3)=NN2)c(O)c1 (centres unmarked) [Entry 61, 2-(3-(4-bromophenyl)-4,5-dihydro-1H-pyrazol-5-yl)-5-methylphenol]"
i.a.,i.a.,–,–,"CC(C)c1ccc(O)c(C2CC(c3ccc(F)cc3)=NN2)c1 (centres unmarked) [Entry 63, 2-(3-(4-fluorophenyl)-4,5-dihydro-1H-pyrazol-5-yl)-4-isopropylphenol]"
–,i.a.,1 to 5,–,"COc1cccc(C2CC(c3ccc(C(F)(F)F)cc3)=NN2)c1O (centres unmarked) [Entry 64, 2-methoxy-6-(3-(4-(trifluoromethyl)phenyl)-4,5-dihydro-1H-pyrazol-5-yl)phenol]"
i.a.,i.a.,–,–,"Cc1ccc(C2CC(c3cc(C(F)(F)F)cc(C(F)(F)F)c3)=NN2)c(O)c1 (centres unmarked) [Entry 65, 2-(3-(3,5-bis(trifluoromethyl)phenyl)-4,5-dihydro-1H-pyrazol-5-yl)-5-methylphenol]"
–,–,< 1,< 1,"Oc1ccccc1C1=NNC(c2ccc(Cl)cc2)C1 (centres unmarked) [Entry 66, 2-(5-(4-chlorophenyl)-4,5-dihydro-1H-pyrazol-3-yl)phenol]"
i.a.,i.a.,–,–,"FC(F)(F)c1cc(C2=NNC(c3ccc(Cl)cc3)C2)cc(C(F)(F)F)c1 (centres unmarked) [Entry 68, 3-(3,5-bis(trifluoromethyl)phenyl)-5-(4-chlorophenyl)-4,5-dihydro-1H-pyrazole]"
i.a.,i.a.,–,–,"FC(F)(F)c1ccc(C2=NNC(c3ccc4ccccc4c3)C2)cc1 (centres unmarked) [Entry 72, 5-(naphthalen-2-yl)-3-(4-(trifluoromethyl)phenyl)-4,5-dihydro-1H-pyrazole]"
–,–,> 5,> 5,"Oc1ccc(C2CC(c3cccc(F)c3)=NN2)cc1 (centres unmarked) [Entry 77, 4-(3-(3-fluorophenyl)-4,5-dihydro-1H-pyrazol-5-yl)phenol]"
–,–,1 to 5,1 to 5,"Oc1cccc(C2CC(c3ccc(Br)cc3)=NN2)c1 (centres unmarked) [Entry 79, 3-(3-(4-bromophenyl)-4,5-dihydro-1H-pyrazol-5-yl)phenol]"
i.a.,i.a.,–,–,"Brc1ccc(C2=NNC(c3ccc4ccccc4c3)C2)cc1 (centres unmarked) [Entry 81, 3-(4-bromophenyl)-5-(naphthalen-2-yl)-4,5-dihydro-1H-pyrazole]"
i.a.,i.a.,–,–,"Oc1ccc(C2CC(c3cccc(C(F)(F)F)c3)=NN2)cc1 (centres unmarked) [Entry 82, 4-(3-(3-(trifluoromethyl)phenyl)-4,5-dihydro-1H-pyrazol-5-yl)phenol]"
i.a.,i.a.,–,–,"FC(F)(F)c1cccc(C2=NNC(c3ccc4ccccc4c3)C2)c1 (centres unmarked) [Entry 83, 5-(naphthalen-2-yl)-3-(3-(trifluoromethyl)phenyl)-4,5-dihydro-1H-pyrazole]"
–,–,> 5,> 5,"Oc1ccc(C2CC(c3cccc(Br)c3)=NN2)cc1 (centres unmarked) [Entry 84, 4-(3-(3-bromophenyl)-4,5-dihydro-1H-pyrazol-5-yl)phenol]"
